# In US20030140370A1, “Fungal glyoxal oxidases” (priority 2001, published 2003):
# Columns and labels:
# [1] = target: glyoxal oxidase (Glo1) (Ustilago maydis, UniProt Q7Z868); assay: Enzyme assay for identifying glyoxal oxidase inhibitors (Amplex Red/HRP coupled, cells of overproducer strain Bay-CA95); type: biochemical; conditions: negative decimal logarithm of molar IC50; intact Bay-CA95 cells, 10 mM methylglyoxal, 9 hours at 30° C., fluorescence 550/595 nm; read-out: pI50 (converted)
# Description: The activity of glyoxal oxidase in vitro and in vivo, for example in the U. maydis cells according to the invention produced as described in Example 3 (CA95) can be detected on the basis of the conversion of the substrate methylglyoxal, exploiting the following reaction:
# Methylglyoxal+O2→pyruvate+H2O2
# H2O2+10-acetyl-3,7-dihydroxyphenoxazine (Amplex Red®)→resorufin+H2O
# Amplex Red® reacts with H2O2 in a 1:1 stoichiometry, giving rise to resorufin (7-hydroxy-3H-phenoxazin-3-one sodium salt). The fluorescence is measured at an excitation wavelength of 550 nm and an emission of 595 nm. A substrate concentration of 10 mM methylglyoxal was employed in the assay. When using intact cells, it must be taken into consideration that the glyoxal oxidase concentration is low and that the reaction must therefore be allowed to proceed longer. Thus, for example, very good readings were obtained after incubation for 9 hours.
# The enzyme assay was carried out in a total volume of 50 μl. To this end, the substances to be assayed were introduced in 10 μl substrate solution (50 mM methylglyoxal, 2.5% (v/v) DMSO) into a 384 microtitre plate. The KM value of glyoxal oxidase for methylglyoxal had previously been determined (cf. FIG. 14). The concentration of the candidate compounds to be tested for an inhibitory effect was such that the final concentration of the substances in the assay carried out was 10 μM. In the next step, 20 μl of cell solultion (cells of the overproducer strain Bay-CA95 (OD600=5); 0.2 M 2,2-dimethyl succinate buffer, pH 5, cooled at 4° C.) were added. 20 μl of detection solution (125 μM Amplex Red™ reagent (20 mM stock solution in 100% DMSO), 2.5 U/ml horseradish peroxidase, 62.5 mM sodium phosphate buffer, pH 7.4) were added to the mixture. The mixture was incubated for 9 hours at 30° C. Then, the increase in fluorescence was measured at λ=550 nm (absorption) and λ=595 nm (emission), the results of a measurement in the presence of Bay-CA95 cells being compared with the results of a measurement in the presence of the wild-type U. maydis 518 cells (see also FIG. 15). The substances used in the assay were present in the following final concentrations: c(2,2-dimethyl succinate/NaOH)=40 mM, c(Amplex Red® (Molecular Probes))=50 μM, c(horseradish peroxidase)=0.001 U/μl, c(methylglyoxal)=10 mM, OD (Bay-CA95)=1, c(sodium phosphate buffer)=25 mM. The inhibitory effect of a candidate compound could be seen from the decrease in relative fluorescence, and inhibitors were identified. […] Table II also gives pI50 values which have been determined for the individual compounds. The pI50 value is the negative decimal logarithm of what is known as the IC50 value, which indicates the molar concentration of a substance which leads to 50% inhibition of the enzyme. For example, a pI50 value of 8 corresponds to half the maximum inhibition of the enzyme at a concentration of 10 nM.
# [2] = system: Venturia inaequalis; assay: Venturia inaequalis (apple scab) protective test on young plants; type: in vivo; conditions: protective action, concentration of 250 ppm; 0% = control, 100% = no disease observed
# Protocol: The antifungal action of the compounds (protective action) was tested, inter alia, on Venturia inaequalis as an example. This fungus causes what is known as apple scab, which leads to black and green mottled leaves in pomaceous fruit trees. The lesions enlarge and coalesce. Leaves which are severely infested die, which may lead to the trees losing all their leaves in summer. The infection also has an adverse effect on fruit set. Scab on fruits manifests itself in grey lesions on the skin, with suberification and deformed fruits.
# To prepare a suitable preparation of active compound, 1 part by weight of active compound is mixed with, for example, 24.5 parts by weight of acetone and 24.5 parts by weight of dimethylformamide and 1.0 part by weight of alkylaryl polyglycol ether as emulsifier, and the concentrate is diluted with water to the desired concentration.
# To test for protective activity, young plants are sprayed with the preparation of the active compound at the application rate stated. After the spray coating has dried on, the plants are inoculated with an aqueous conidial suspension of the apple scab pathogen Venturia inaequalis and then remain in an incubation cabinet for 1 day at approximately 20° C. and 100% relative atmospheric humidity. […]
# 1 to 12 days post-inoculation, the test is evaluated. […]
# Sequence of glyoxal oxidase (Glo1) (Q7Z868 entry or part of it): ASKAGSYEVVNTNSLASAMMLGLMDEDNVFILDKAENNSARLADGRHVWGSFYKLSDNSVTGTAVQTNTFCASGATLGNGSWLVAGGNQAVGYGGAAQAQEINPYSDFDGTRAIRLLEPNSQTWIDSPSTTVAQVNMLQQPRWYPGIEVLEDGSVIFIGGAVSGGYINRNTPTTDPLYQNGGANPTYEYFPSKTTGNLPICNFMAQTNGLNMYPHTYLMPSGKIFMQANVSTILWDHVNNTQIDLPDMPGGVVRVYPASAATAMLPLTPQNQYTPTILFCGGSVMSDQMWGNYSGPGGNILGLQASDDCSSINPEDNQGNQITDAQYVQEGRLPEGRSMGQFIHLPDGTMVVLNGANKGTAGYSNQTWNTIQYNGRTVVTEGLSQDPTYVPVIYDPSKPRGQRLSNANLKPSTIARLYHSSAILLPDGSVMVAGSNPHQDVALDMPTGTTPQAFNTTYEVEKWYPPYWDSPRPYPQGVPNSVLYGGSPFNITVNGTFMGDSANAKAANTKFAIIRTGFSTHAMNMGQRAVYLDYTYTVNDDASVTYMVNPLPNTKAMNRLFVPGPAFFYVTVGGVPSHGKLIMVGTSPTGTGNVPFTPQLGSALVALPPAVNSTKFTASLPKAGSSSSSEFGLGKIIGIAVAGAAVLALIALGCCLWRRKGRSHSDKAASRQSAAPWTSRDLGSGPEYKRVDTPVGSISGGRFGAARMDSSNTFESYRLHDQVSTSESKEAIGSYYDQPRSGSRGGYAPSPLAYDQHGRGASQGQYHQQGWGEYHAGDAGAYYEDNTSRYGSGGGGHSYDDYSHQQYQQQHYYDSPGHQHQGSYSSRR
SMILES,IC50 [1] [µM],efficacy [2] [%]
COc1ccc(C(=O)Nc2ccccc2)cc1N [Example 1],11,–
CCOc1ccc(NCc2ccccc2O)cc1 [Example 2],4.07,–
C[Si](C)(C)O[Si](C)(CCCNC(=O)/C=C\c1cc(OC(O)C(O)C(O)C(O)CO)c(O)cc1O)O[Si](C)(C)C (stereo not drawn) [Example 4],3.8,45
Nc1ccc(Oc2ccc(N)cc2)cc1 [Example 3],5.62,–
COc1ccc(NCc2ccccc2O)cc1 [Example 5],3.98,–
